The values below come from patent US20030152515A1, “Method for estimating effective regimens and patient survival rates of antibiotic treatments for fatal infectious diseases” (priority 2002, published 2003).

Converted amounts (≈) assume the structure as drawn. “Also recorded” adds a separate entry of the source.

One experiment concerns Bacillus anthracis. The settings on record: rhesus monkey, in vivo; cited from earlier work.
Another experiment concerns anthrax. Kind of experiment: microbe, parasite or virus in culture. The class given is cell-based. Conditions: Bacillus anthracis, read-out: MIC against anthrax, mid point adopted in the analyses.
The test system of another experiment is inhalational anthrax. Conditions: human, in vivo; cited from earlier work.
Experiment [1] deals with gram positive and negative organisms. Conditions: cited from earlier work.

Take `O=C(O)c1cn(C2CC2)c2cc(N3CCNCC3)c(F)cc2c1=O` [ciprofloxacin]: in the experiment on Bacillus anthracis, the “protection from the disease while on therapy” value is reported as “sufficient protection; also recorded: adequately protected” and the survival rate was 90%. Moreover, in the experiment with anthrax, the MIC is 0.07 µg/mL (≈ 0.211 µM). Moreover, the overall survival with inhalational anthrax is given as 55%. Moreover, the “MIC range of organisms in the literature study” value in experiment [1] is on record as 0.008−0.4 μg/mL.
